Experimental data as given in ChEMBL document CHEMBL1799932, “Antimalarial pyrido[1,2-a]benzimidazoles” (J Med Chem, 2011).

Experiments:
Plasmodium berghei [1] = assay: Antimalarial activity against GFP-transfected Plasmodium berghei strain ANKA infected in NMRI mouse assessed as reduction in parasitemia at 50 mg/kg, po administered as multiple dose for 4 days measured 24 hrs after last treatment; assay type: functional; design: scale not given: the % may be the effect or the level left
Plasmodium berghei [2] = assay: Antimalarial activity against GFP-transfected Plasmodium berghei strain ANKA infected in NMRI mouse assessed as increase in median survival time at 25 mg/kg, po administered as multiple dose for 4 days measured 24 hrs after last treatment (reference value: 6.5 days ); assay type: functional
Rattus norvegicus [3] = assay: AUC (0 to tlast) in fasted Sprague-Dawley rat assessed as 1-(2-Ethylaminoethylamino)-3-[4-(trifluoromethyl)phenyl]- pyrido[1,2-a]benzimidazole-4-carbonitrile level at 20 mg/kg, po after 48 hrs by LC-MS analysis; assay type: ADME, organism-based, Plasma; design: time < 48 hr, dose 20 mg/kg, route oral; settings: in vivo
[4] = Metabolic stability in mouse liver microsomes assessed as intrinsic clearance per mg protein after 60 mins by LC-MS analysis; assay type: ADME, Microsome
[5] = Metabolic stability in human liver microsomes assessed as degradation half life after 60 mins by LC-MS analysis; assay type: ADME, Microsome
Rattus norvegicus [6] = assay: Cmax in fasted Sprague-Dawley rat assessed as 1-(2-Ethylaminoethylamino)-3-[4-(trifluoromethyl)phenyl]- pyrido[1,2-a]benzimidazole-4-carbonitrile level at 20 mg/kg, po after 48 hrs by LC-MS analysis; assay type: ADME, organism-based; design: dose 20 mg/kg, route oral; settings: in vivo
Plasma [7] = assay: Plasma protein binding in mouse assessed as 1-(2-Ethylaminoethylamino)-3-[4-(trifluoromethyl)phenyl]-pyrido[1,2-a]benzimidazole-4-carbonitrile at 5 mg/kg, iv after 48 hrs by LC-MS analysis; assay type: ADME, organism-based; design: dose 5 mg/kg, route intravenous; settings: in vivo
Plasmodium berghei [8] = assay: Antimalarial activity against GFP-transfected Plasmodium berghei strain ANKA infected in NMRI mouse assessed as increase in median survival time at 6 mg/kg, po administered as multiple dose for 4 days measured 24 hrs after last treatment (reference value: 6.5 days ); assay type: functional
Plasmodium berghei [9] = assay: Antimalarial activity against GFP-transfected Plasmodium berghei strain ANKA infected in NMRI mouse assessed as reduction in parasitemia at 25 mg/kg, po administered as single dose measured on day 2 by FACS analysis; assay type: functional; design: scale not given: the % may be the effect or the level left
Plasmodium berghei [10] = assay: Antimalarial activity against GFP-transfected Plasmodium berghei strain ANKA infected in NMRI mouse assessed as reduction in parasitemia at 25 mg/kg, po administered as single dose measured on day 5 by FACS analysis; assay type: functional; design: scale not given: the % may be the effect or the level left
Plasmodium berghei [11] = assay: Antimalarial activity against GFP-transfected Plasmodium berghei strain ANKA infected in NMRI mouse assessed as reduction in parasitemia at 6 mg/kg, po administered as single dose for 4 days measured 24 hrs after last treatment; assay type: functional; design: scale not given: the % may be the effect or the level left
Plasmodium berghei [12] = assay: Antimalarial activity against GFP-transfected Plasmodium berghei strain ANKA infected in NMRI mouse assessed as reduction in parasitemia at 25 mg/kg, po administered as single dose for 4 days measured 24 hrs after last treatment; assay type: functional; design: scale not given: the % may be the effect or the level left
Plasmodium berghei [13] = assay: Antimalarial activity against GFP-transfected Plasmodium berghei strain ANKA infected in NMRI mouse assessed as increase in mean survival time at 25 mg/kg, po administered as single dose (reference value: 5 days )
Plasmodium berghei [14] = assay: Antimalarial activity against GFP-transfected Plasmodium berghei strain ANKA infected in NMRI mouse assessed as reduction in parasitemia at 25 mg/kg, po administered as single dose measured on day 3 by FACS analysis; assay type: functional; design: scale not given: the % may be the effect or the level left
[15] = Metabolic stability in human liver microsomes assessed as intrinsic clearance per mg protein after 60 mins by LC-MS analysis; assay type: ADME, Microsome
[16] = Metabolic stability in mouse liver microsomes assessed as degradation half life after 60 mins by LC-MS analysis; assay type: ADME, Microsome
Rattus norvegicus [17] = assay: Apparent volume of distribution in fasted Sprague-Dawley rat plasma assessed as 1-(2-Ethylaminoethylamino)-3-[4-(trifluoromethyl)phenyl]- pyrido[1,2-a]benzimidazole-4-carbonitrile level at 5 mg/kg, iv after 48 hrs by LC-MS analysis; settings: in vivo
Plasma [18] = assay: Plasma protein binding in human assessed as 1-(2-Ethylaminoethylamino)-3-[4-(trifluoromethyl)phenyl]-pyrido[1,2-a]benzimidazole-4-carbonitrile at 5 mg/kg, iv after 48 hrs by LC-MS analysis; assay type: ADME, organism-based; design: dose 5 mg/kg, route intravenous; settings: in vivo
Plasmodium berghei [19] = assay: Antimalarial activity against GFP-transfected Plasmodium berghei strain ANKA infected in NMRI mouse assessed as increase in median survival time at 50 mg/kg, po administered as multiple dose for 4 days measured 24 hrs after last treatment (reference value: 6.5 days ); assay type: functional
Rattus norvegicus [20] = assay: AUC (0 to tlast) in fasted Sprague-Dawley rat assessed as 1-(2-Ethylaminoethylamino)-3-[4-(trifluoromethyl)phenyl]- pyrido[1,2-a]benzimidazole-4-carbonitrile level at 5 mg/kg, iv after 48 hrs by LC-MS analysis; assay type: ADME, organism-based, Plasma; design: time < 48 hr, dose 5 mg/kg, route intravenous; settings: in vivo
Plasmodium berghei [21] = assay: Antimalarial activity against GFP-transfected Plasmodium berghei strain ANKA infected in NMRI mouse assessed as reduction in parasitemia at 3 mg/kg, po administered as multiple dose for 4 days measured 24 hrs after last treatment; assay type: functional; design: scale not given: the % may be the effect or the level left
Plasmodium berghei [22] = assay: Antimalarial activity against GFP-transfected Plasmodium berghei strain ANKA infected in NMRI mouse assessed as increase in mean survival time at 50 mg/kg, po administered as single dose (reference value: 5 days )
[23] = Metabolic stability in rat liver microsomes assessed as degradation half life after 60 mins by LC-MS analysis; assay type: ADME, Microsome
Plasmodium berghei [24] = assay: Antimalarial activity against GFP-transfected Plasmodium berghei strain ANKA infected in NMRI mouse assessed as reduction in parasitemia at 50 mg/kg, po administered as single dose measured on day 5 by FACS analysis; assay type: functional; design: scale not given: the % may be the effect or the level left
Plasmodium berghei [25] = assay: Antimalarial activity against GFP-transfected Plasmodium berghei strain ANKA infected in NMRI mouse assessed as reduction in parasitemia at 50 mg/kg, po administered as single dose measured on day 4 by FACS analysis; assay type: functional; design: scale not given: the % may be the effect or the level left
[26] = Metabolic stability in rat liver microsomes assessed as intrinsic clearance per mg protein after 60 mins by LC-MS analysis; assay type: ADME, Microsome
Plasmodium berghei [27] = assay: Antimalarial activity against GFP-transfected Plasmodium berghei strain ANKA infected in NMRI mouse assessed as increase in median survival time at 12.5 mg/kg, po administered as multiple dose for 4 days measured 24 hrs after last treatment (reference value: 6.5 days ); assay type: functional
Rattus norvegicus [28] = assay: Tmax in fasted Sprague-Dawley rat assessed as 1-(2-Ethylaminoethylamino)-3-[4-(trifluoromethyl)phenyl]- pyrido[1,2-a]benzimidazole-4-carbonitrile level at 20 mg/kg, po after 48 hrs by LC-MS analysis; assay type: ADME, organism-based; design: dose 20 mg/kg, route oral; settings: in vivo
Plasmodium berghei [29] = assay: Antimalarial activity against GFP-transfected Plasmodium berghei strain ANKA infected in NMRI mouse assessed as reduction in parasitemia at 50 mg/kg, po administered as single dose measured on day 3 by FACS analysis; assay type: functional; design: scale not given: the % may be the effect or the level left
Rattus norvegicus [30] = assay: Drug excretion in fasted Sprague-Dawley rat urine assessed as 1-(2-Ethylaminoethylamino)-3-[4-(trifluoromethyl)phenyl]- pyrido[1,2-a]benzimidazole-4-carbonitrile level at 20 mg/kg, po after 48 hrs by LC-MS analysis; assay type: ADME, organism-based; design: dose 20 mg/kg, route oral; settings: in vivo
Plasmodium berghei [31] = assay: Antimalarial activity against GFP-transfected Plasmodium berghei strain ANKA infected in NMRI mouse assessed as reduction in parasitemia at 25 mg/kg, po administered as single dose measured on day 4 by FACS analysis; assay type: functional; design: scale not given: the % may be the effect or the level left
Rattus norvegicus [32] = assay: Apparent half life in fasted Sprague-Dawley rat assessed as 1-(2-Ethylaminoethylamino)-3-[4-(trifluoromethyl)phenyl]- pyrido[1,2-a]benzimidazole-4-carbonitrile level at 5 mg/kg, iv after 48 hrs by LC-MS analysis; assay type: ADME, organism-based; design: dose 5 mg/kg, route intravenous; settings: in vivo
Rattus norvegicus [33] = assay: Drug excretion in fasted Sprague-Dawley rat urine assessed as 1-(2-Ethylaminoethylamino)-3-[4-(trifluoromethyl)phenyl]- pyrido[1,2-a]benzimidazole-4-carbonitrile level at 5 mg/kg, iv after 48 hrs by LC-MS analysis; assay type: ADME, organism-based; design: dose 5 mg/kg, route intravenous; settings: in vivo
Plasmodium berghei [34] = assay: Antimalarial activity against GFP-transfected Plasmodium berghei strain ANKA infected in NMRI mouse assessed as reduction in parasitemia at 12.5 mg/kg, po administered as multiple dose for 4 days measured 24 hrs after last treatment; assay type: functional; design: scale not given: the % may be the effect or the level left
Plasmodium berghei [35] = assay: Antimalarial activity against GFP-transfected Plasmodium berghei strain ANKA infected in NMRI mouse assessed as increase in median survival time at 3 mg/kg, po administered as single dose for 4 days measured 24 hrs after last treatment (reference value: 6.5 days ); assay type: functional
Plasmodium berghei [36] = assay: Antimalarial activity against GFP-transfected Plasmodium berghei strain ANKA infected in NMRI mouse assessed as reduction in parasitemia at 50 mg/kg, po administered as single dose measured on day 2 by FACS analysis; assay type: functional; design: scale not given: the % may be the effect or the level left

CCNCCNc1cc(-c2ccc(C(F)(F)F)cc2)c(C#N)c2nc3ccccc3n12.Cl.Cl
Activity (Plasmodium berghei [1]): 95.56% | Activity (Plasmodium berghei [2]): 14.3 days | AUClast (Rattus norvegicus [3]): 2076 µM·min | microsomal CLint [4]: 5.4 µL/min/mg | half-life [5]: 2.28 h | Cmax (Rattus norvegicus [6]): 950 nM | PPB (Plasma [7]): 95.3% | Activity (Plasmodium berghei [8]): 7 days | Activity (Plasmodium berghei [9]): 23.51% | Activity (Plasmodium berghei [10]): 68.92% | Activity (Plasmodium berghei [11]): 38.35% | Activity (Plasmodium berghei [12]): 95.72% | MSD (Plasmodium berghei [13]): 13.3 days | Activity (Plasmodium berghei [14]): 55.45% | microsomal CLint [15]: 12.7 µL/min/mg | half-life [16]: 5.35 h | Vz (Rattus norvegicus [17]): 7.5 L/kg | PPB (Plasma [18]): 98.3% | Activity (Plasmodium berghei [19]): 14 days | AUClast (Rattus norvegicus [20]): 1000 µM·min | Activity (Plasmodium berghei [21]): 0% | MSD (Plasmodium berghei [22]): 12.7 days | half-life [23]: 4.74 h | Activity (Plasmodium berghei [24]): 79.79% | Activity (Plasmodium berghei [25]): 71.22% | microsomal CLint [26]: 6.1 µL/min/mg | Activity (Plasmodium berghei [27]): 14 days | Tmax (Rattus norvegicus [28]): 16 h | Activity (Plasmodium berghei [29]): 50.24% | Activity (Rattus norvegicus [30]): 0.21% | Activity (Plasmodium berghei [31]): 62.25% | t1/2(app) (Rattus norvegicus [32]): 16.3 h | Activity (Rattus norvegicus [33]): 1.13% | Activity (Plasmodium berghei [34]): 80.73% | MSD (Plasmodium berghei [35]): 4 days | Activity (Plasmodium berghei [36]): 30.78%
